This note sets out measurements from patent publication US12662491B2 (Redona Therapeutics, Inc., priority 2020, dated 2026).

The experiment addresses T1, Zcchc11 enzyme (Homo sapiens, UniProt Q5TAX3).
T1 construct: made in house; host or cells: HEK293 cells (Zcchc11); E. coli Rosetta II (LIN28A)
T1 sequence (Q5TAX3 212-1420): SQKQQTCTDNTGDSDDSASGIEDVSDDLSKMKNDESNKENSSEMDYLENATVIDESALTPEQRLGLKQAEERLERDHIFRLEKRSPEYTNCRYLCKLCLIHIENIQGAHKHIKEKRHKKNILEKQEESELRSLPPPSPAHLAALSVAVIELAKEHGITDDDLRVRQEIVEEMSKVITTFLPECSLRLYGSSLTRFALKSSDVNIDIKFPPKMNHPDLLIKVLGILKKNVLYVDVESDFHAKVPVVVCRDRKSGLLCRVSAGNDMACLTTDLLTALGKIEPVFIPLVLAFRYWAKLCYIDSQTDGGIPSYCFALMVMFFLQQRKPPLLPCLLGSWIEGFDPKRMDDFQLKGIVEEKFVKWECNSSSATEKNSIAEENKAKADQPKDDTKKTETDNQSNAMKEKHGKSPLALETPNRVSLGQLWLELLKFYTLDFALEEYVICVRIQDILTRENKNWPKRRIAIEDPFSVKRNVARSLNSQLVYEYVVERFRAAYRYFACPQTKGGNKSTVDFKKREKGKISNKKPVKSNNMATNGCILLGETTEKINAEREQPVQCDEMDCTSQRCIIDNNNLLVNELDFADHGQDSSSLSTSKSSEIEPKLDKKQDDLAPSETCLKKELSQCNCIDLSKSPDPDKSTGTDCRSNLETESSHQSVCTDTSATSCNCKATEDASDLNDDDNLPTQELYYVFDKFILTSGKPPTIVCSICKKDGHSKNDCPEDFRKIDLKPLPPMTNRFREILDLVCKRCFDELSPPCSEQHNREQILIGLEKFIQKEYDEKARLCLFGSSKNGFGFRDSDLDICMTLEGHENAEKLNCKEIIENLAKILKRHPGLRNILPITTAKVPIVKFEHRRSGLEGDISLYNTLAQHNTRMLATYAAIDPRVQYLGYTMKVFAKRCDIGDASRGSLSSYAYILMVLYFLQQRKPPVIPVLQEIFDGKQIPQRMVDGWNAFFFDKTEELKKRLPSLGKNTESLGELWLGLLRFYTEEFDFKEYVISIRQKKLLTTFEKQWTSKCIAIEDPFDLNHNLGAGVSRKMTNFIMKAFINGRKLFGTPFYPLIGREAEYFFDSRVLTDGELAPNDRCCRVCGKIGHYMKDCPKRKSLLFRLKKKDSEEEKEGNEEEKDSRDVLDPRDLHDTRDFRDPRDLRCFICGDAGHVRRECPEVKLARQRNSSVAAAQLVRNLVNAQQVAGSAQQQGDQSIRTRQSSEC
As to the kind of experiment: TUTase assay (Zcchc11 assay, Lin28a-dependent polyuridylation of pre-let-7). It is filed as biochemical. The note with it: Lin28a-dependent Zcchc11 (Z11) TUTase assay; read-out: Potency Lin28a-dep Z11 IC50. The gist of the method:
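Human Zcchc11 residues 212-1420 (HEK293-expressed, MBP tag cleaved, C-terminal FLAG) at 0.2 nM, with 10 nM full-length human LIN28A and 2 nM 5′-fluorescein pre-let-7, preincubated with compound 30 min at room temperature. Reaction started with 5 uM UTP plus 4 nM 3′-rhodamine A20 quench probe; fluorescein loss read kinetically, IC50 from initial rates.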

One may read the IC50 as the concentration needed to halve the response being measured. Turning to `COc1cnc(OC[C@H]2C[C@H]3C[C@H]3N2c2cc3c(cc2Cl)c(=O)c(C(=O)O)cn3-c2ccc(N3CC(N(C)C)C3)nc2)c(Cl)c1` [Example 662, 6-chloro-7-((1R,3R,5R)-3-(((3-chloro-5-methoxypyridin-2-yl)oxy)methyl)-2-azabicyclo[3.1.0]hexan-2-yl)-1-(6-(3-(dimethylamino)azetidin-1-yl)pyridin-3-yl)-4-oxo-1,4-dihydroquinoline-3-carboxylic acid], the IC50 was at most 1000 nM.
For `COc1ccc(Cl)c(OC[C@H]2CC3(CC3)CN2c2cc3c(cc2Cl)c(=O)c(C(=O)O)cn3-c2ccc(N3CC(N(C)C)C3)nc2)n1` [Example 663, (R)-6-chloro-7-(6-(((3-chloro-6-methoxypyridin-2-yl)oxy)methyl)-5-azaspiro[2.4]heptan-5-yl)-1-(6-(3-(dimethylamino)azetidin-1-yl)pyridin-3-yl)-4-oxo-1,4-dihydroquinoline-3-carboxylic acid] the value was at most 1000 nM; for `CN(C)C1CN(c2ccc(-n3cc(C(=O)O)c(=O)c4cc(Cl)c(N5CC[C@@H](F)[C@@H]5COc5ncccc5Cl)cc43)cn2)C1` [Example 664, 6-chloro-7-((2S,3R)-2-(((3-chloropyridin-2-yl)oxy)methyl)-3-fluoropyrrolidin-1-yl)-1-(6-(3-(dimethylamino)azetidin-1-yl)pyridin-3-yl)-4-oxo-1,4-dihydroquinoline-3-carboxylic acid], at most 1000 nM.
For `CN(C)c1ccc(Cl)c(OC[C@H]2CC3CC3N2c2cc3c(cc2Cl)c(=O)c(C(=O)O)cn3-c2ccc(N3CC(N(C)C)C3)nc2)n1` (stereo partly drawn) [Example 665, 6-chloro-7-((3R)-3-(((3-chloro-6-(dimethylamino)pyridin-2-yl)oxy)methyl)-2-azabicyclo[3.1.0]hexan-2-yl)-1-(6-(3-(dimethylamino)azetidin-1-yl)pyridin-3-yl)-4-oxo-1,4-dihydroquinoline-3-carboxylic acid] the value was at most 1000 nM; for `CN(C)C1CN(c2ccc(-n3cc(C(=O)O)c(=O)c4cc(Cl)c(N5CCC[C@H]5COc5ncccc5Cl)cc43)cn2)C1` [Example 666, (S)-6-chloro-7-(2-(((3-chloropyridin-2-yl)oxy)methyl)pyrrolidin-1-yl)-1-(6-(3-(dimethylamino)azetidin-1-yl)pyridin-3-yl)-4-oxo-1,4-dihydroquinoline-3-carboxylic acid], at most 1000 nM.
In the case of `CN(C)C1CN(c2ccc(-n3cc(C(=O)O)c(=O)c4cc(Cl)c(N5CC[C@H](O)[C@@H]5COc5ncccc5Cl)cc43)cn2)C1` [Example 667, 6-chloro-7-((2S,3S)-2-(((3-chloropyridin-2-yl)oxy)methyl)-3-hydroxypyrrolidin-1-yl)-1-(6-(3-(dimethylamino)azetidin-1-yl)pyridin-3-yl)-4-oxo-1,4-dihydroquinoline-3-carboxylic acid] it was at most 1000 nM; in that of `COc1ccnc(OC[C@@H]2CCCN2c2cc3c(cc2Cl)c(=O)c(C(=O)O)cn3-c2ccc(N3CC(N(C)C)C3)nc2)c1Cl` [Example 668, (S)-6-chloro-7-(2-(((3-chloro-4-methoxypyridin-2-yl)oxy)methyl)pyrrolidin-1-yl)-1-(6-(3-(dimethylamino)azetidin-1-yl)pyridin-3-yl)-4-oxo-1,4-dihydroquinoline-3-carboxylic acid], at most 1000 nM; in that of `CO[C@H]1CCN(c2cc3c(cc2Cl)c(=O)c(C(=O)O)cn3-c2ccc(N3CC(N(C)C)C3)nc2)[C@H]1COc1ncccc1Cl` [Example 669, 6-chloro-7-((2S,3S)-2-(((3-chloropyridin-2-yl)oxy)methyl)-3-methoxypyrrolidin-1-yl)-1-(6-(3-(dimethylamino)azetidin-1-yl)pyridin-3-yl)-4-oxo-1,4-dihydroquinoline-3-carboxylic acid], at most 1000 nM.
As to `CN(C)C1CN(c2ccc(-n3cc(C(=O)O)c(=O)c4cc(F)c(N5CCC[C@H]5COc5ncccc5Cl)cc43)cn2)C1` [Example 670, (S)-7-(2-(((3-chloropyridin-2-yl)oxy)methyl)pyrrolidin-1-yl)-1-(6-(3-(dimethylamino)azetidin-1-yl)pyridin-3-yl)-6-fluoro-4-oxo-1,4-dihydroquinoline-3-carboxylic acid], the IC50 was in the range of 1000 to 10000 nM.
For the molecule `CN(C)C1CN(c2ccc(-n3cc(C(=O)O)c(=O)c4cc(F)c(N5CC[C@@H](F)[C@@H]5COc5ncccc5Cl)cc43)cn2)C1` [Example 671, 7-((2S,3R)-2-(((3-chloropyridin-2-yl)oxy)methyl)-3-fluoropyrrolidin-1-yl)-1-(6-(3-(dimethylamino)azetidin-1-yl)pyridin-3-yl)-6-fluoro-4-oxo-1,4-dihydroquinoline-3-carboxylic acid], the IC50 was at most 1000 nM.
In the case of `CN(C)C1CN(c2ccc(-n3cc(C(=O)O)c(=O)c4cc(Cl)c(N5[C@@H](COc6nc(OC7CC7)ccc6Cl)C[C@H]6C[C@H]65)cc43)cn2)C1` [Example 672, 6-chloro-7-((1R,3R,5R)-3-(((3-chloro-6-cyclopropoxy-pyridin-2-yl)oxy)methyl)-2-azabicyclo[3.1.0]hexan-2-yl)-1-(6-(3-(dimethylamino)azetidin-1-yl)pyridin-3-yl)-4-oxo-1,4-dihydroquinoline-3-carboxylic acid] it was at most 1000 nM.
In the case of `COc1ccnc(OC[C@H]2C[C@H]3C[C@H]3N2c2cc3c(cc2F)c(=O)c(C(=O)O)cn3-c2ccc(N3CC(N(C)C)C3)nc2)c1Cl` [Example 673, 7-((1R,3R,5R)-3-(((3-chloro-4-methoxypyridin-2-yl)oxy)methyl)-2-azabicyclo[3.1.0]hexan-2-yl)-1-(6-(3-(dimethylamino)azetidin-1-yl)pyridin-3-yl)-6-fluoro-4-oxo-1,4-dihydroquinoline-3-carboxylic acid] it was at most 1000 nM; in that of `COc1ccnc(OC[C@H]2C[C@H]3C[C@H]3N2c2cc3c(cc2Cl)c(=O)c(C(=O)O)cn3-c2ccc(N3CC(N(C)C)C3)nc2)c1Cl` [Example 674, 6-chloro-7-((1R,3R,5R)-3-(((3-chloro-4-methoxypyridin-2-yl)oxy)methyl)-2-azabicyclo[3.1.0]hexan-2-yl)-1-(6-(3-(dimethylamino)azetidin-1-yl)pyridin-3-yl)-4-oxo-1,4-dihydroquinoline-3-carboxylic acid], at most 1000 nM; in that of `CN(C)C1CN(c2ccc(-n3cc(C(=O)O)c(=O)c4cc(Cl)c(N5CC6(CC6)C[C@@H]5COc5nc(OC6CC6)ccc5Cl)cc43)cn2)C1` [Example 675, (R)-6-chloro-7-(6-(((3-chloro-6-cyclopropoxy-pyridin-2-yl)oxy)methyl)-5-azaspiro[2.4]heptan-5-yl)-1-(6-(3-(dimethylamino)azetidin-1-yl)pyridin-3-yl)-4-oxo-1,4-dihydroquinoline-3-carboxylic acid], at most 1000 nM.
As for `COc1ccc(C)c(OC[C@H]2C[C@H]3C[C@H]3N2c2cc3c(cc2Cl)c(=O)c(C(=O)O)cn3-c2ccc(N3CC(N(C)C)C3)nc2)n1` [Example 676, 6-chloro-1-(6-(3-(dimethylamino)azetidin-1-yl)pyridin-3-yl)-7-((1R,3R,5R)-3-(((6-methoxy-3-methylpyridin-2-yl)oxy)methyl)-2-azabicyclo[3.1.0]hexan-2-yl)-4-oxo-1,4-dihydroquinoline-3-carboxylic acid], the IC50 is at most 1000 nM.
For `COc1ccc(Cl)c(OC[C@H]2C[C@H]3C[C@H]3N2c2nc3c(cc2Cl)c(=O)c(C(=O)O)cn3-c2ccc(N3CC(N(C)C)C3)nc2)n1` [Example 677, 6-chloro-7-((1R,3R,5R)-3-(((3-chloro-6-methoxypyridin-2-yl)oxy)methyl)-2-azabicyclo[3.1.0]hexan-2-yl)-1-(6-(3-(dimethylamino)azetidin-1-yl)pyridin-3-yl)-4-oxo-1,4-dihydro-1,8-naphthyridine-3-carboxylic aci] the value was at most 1000 nM.
